Tests used:
Assay type in all cases: cell-based
SMARCA2 [1] = target: T1, SMARCA2 (Homo sapiens, UniProt P51531); experiment: SMARCA2 Western blot degradation in MV4-11 cells; set-up: SMARCA2/SMARCA4 protein degradation selectivity in MV4-11 cells; endogenous in cells; host or cells: MV4-11; details: for Dmax: MV4-11, MV4-11 cells, read-out: SMARCA2 MSD MV411 degradation 24 h: average Dmax %; for Dmax / DC50 / SMARCA2 MSD MV411 degradation 24 h: average Dmax %: 24 h; for DC50 / Selectivity in MV411 / SMARCA2 MSD MV411 degradation 24 h: average Dmax %: MV4-11 cells; for DC50: read-out: SMARCA2 MSD MV411 degradation 24 h: Mean external-Abs DC50; for Selectivity in MV411: SMARCA2/4 selectivity
SMARCA2 [2] = target: T1, SMARCA2; experiment: MSD SMARCA2 degradation in A549 cell line; details: for Dmax: A549, A549 cells; for Dmax / DC50: 24 h; for DC50 / SMARCA2 MSD A549 degradation 24 h: Average Dmax %: A549 cells; for DC50: read-out: SMARCA2 MSD A549 degradation 24 h: Average external-Abs DC50
Method in brief: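 A549 cells treated 24 h with compound, 3-fold series from 1000 nM. Lysates captured on MSD plates and SMARCA2 quantified with anti-SMARCA2 and SULFO-TAG secondary antibodies (electrochemiluminescence). DC50 and Dmax (% degradation at 24 h) reported as letter bins.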

SMARCA4 = target: T2, SMARCA4 (Homo sapiens, UniProt P51532); experiment: SMARCA4 Western blot degradation in MV4-11 cells; details: for Dmax: MV4-11, MV4-11 cells, read-out: SMARCA4 MSD MV411 degradation 24 h: average Dmax %; for Dmax / DC50: 24 h; for DC50 / SMARCA4 MSD MV411 degradation 24 h: average Dmax %: MV4-11 cells; for DC50: read-out: SMARCA4 MSD MV411 degradation 24 h: Mean external-Abs DC50
T2 construct: SMARCA2/SMARCA4 protein degradation selectivity in MV4-11 cells; endogenous in cells; host or cells: MV4-11
Method in brief: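 24 h compound exposure, MV4-11; RIPA lysates → SDS-PAGE → NC membrane; anti-SMARCA2/BRM, anti-BRG1, β-actin loading control; LI-COR fluorescence read. DC50 and Dmax at 24 h reported as letter bins.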

T2 sequence (P51532 whole entry): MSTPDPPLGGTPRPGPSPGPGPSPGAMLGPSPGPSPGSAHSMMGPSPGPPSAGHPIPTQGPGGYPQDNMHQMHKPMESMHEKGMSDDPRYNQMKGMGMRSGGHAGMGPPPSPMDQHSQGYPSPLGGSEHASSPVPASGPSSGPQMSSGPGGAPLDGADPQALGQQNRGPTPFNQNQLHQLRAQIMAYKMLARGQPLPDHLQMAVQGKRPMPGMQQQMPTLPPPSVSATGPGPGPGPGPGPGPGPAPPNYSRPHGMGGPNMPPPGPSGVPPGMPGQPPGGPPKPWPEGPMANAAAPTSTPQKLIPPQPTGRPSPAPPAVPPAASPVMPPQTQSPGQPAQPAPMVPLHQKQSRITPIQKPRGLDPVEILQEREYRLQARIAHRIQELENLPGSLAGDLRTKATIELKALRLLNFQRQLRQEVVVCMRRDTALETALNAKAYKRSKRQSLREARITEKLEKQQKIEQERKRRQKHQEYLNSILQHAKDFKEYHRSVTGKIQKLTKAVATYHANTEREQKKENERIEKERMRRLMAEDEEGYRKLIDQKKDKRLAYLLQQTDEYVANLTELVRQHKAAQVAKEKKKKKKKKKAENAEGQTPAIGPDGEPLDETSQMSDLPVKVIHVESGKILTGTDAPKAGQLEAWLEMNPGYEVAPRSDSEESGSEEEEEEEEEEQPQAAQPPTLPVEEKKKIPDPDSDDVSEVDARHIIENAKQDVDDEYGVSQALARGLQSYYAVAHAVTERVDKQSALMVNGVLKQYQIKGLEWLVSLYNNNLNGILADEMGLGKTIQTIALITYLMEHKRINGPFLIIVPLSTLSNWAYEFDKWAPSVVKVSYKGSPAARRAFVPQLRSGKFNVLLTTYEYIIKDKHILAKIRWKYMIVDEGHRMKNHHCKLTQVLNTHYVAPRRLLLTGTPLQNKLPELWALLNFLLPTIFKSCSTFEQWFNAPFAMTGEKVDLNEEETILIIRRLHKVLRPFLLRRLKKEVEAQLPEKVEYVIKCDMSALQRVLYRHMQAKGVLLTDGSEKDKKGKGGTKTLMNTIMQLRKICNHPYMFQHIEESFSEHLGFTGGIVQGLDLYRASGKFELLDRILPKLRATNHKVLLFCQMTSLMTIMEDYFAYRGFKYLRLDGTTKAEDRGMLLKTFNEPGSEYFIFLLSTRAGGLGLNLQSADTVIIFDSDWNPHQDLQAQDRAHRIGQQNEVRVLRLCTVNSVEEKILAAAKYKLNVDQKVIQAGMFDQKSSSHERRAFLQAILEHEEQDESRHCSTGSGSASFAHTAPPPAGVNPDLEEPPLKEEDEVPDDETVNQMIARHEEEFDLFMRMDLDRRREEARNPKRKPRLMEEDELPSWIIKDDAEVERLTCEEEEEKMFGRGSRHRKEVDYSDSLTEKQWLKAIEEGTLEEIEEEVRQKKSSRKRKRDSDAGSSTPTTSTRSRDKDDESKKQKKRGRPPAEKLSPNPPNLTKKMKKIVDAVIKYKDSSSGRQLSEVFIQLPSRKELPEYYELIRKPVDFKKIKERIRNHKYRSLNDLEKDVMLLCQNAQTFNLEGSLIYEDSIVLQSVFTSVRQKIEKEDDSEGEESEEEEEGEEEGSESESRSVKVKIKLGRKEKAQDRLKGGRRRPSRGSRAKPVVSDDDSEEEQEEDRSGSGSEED
T1 sequence (P51531 whole entry): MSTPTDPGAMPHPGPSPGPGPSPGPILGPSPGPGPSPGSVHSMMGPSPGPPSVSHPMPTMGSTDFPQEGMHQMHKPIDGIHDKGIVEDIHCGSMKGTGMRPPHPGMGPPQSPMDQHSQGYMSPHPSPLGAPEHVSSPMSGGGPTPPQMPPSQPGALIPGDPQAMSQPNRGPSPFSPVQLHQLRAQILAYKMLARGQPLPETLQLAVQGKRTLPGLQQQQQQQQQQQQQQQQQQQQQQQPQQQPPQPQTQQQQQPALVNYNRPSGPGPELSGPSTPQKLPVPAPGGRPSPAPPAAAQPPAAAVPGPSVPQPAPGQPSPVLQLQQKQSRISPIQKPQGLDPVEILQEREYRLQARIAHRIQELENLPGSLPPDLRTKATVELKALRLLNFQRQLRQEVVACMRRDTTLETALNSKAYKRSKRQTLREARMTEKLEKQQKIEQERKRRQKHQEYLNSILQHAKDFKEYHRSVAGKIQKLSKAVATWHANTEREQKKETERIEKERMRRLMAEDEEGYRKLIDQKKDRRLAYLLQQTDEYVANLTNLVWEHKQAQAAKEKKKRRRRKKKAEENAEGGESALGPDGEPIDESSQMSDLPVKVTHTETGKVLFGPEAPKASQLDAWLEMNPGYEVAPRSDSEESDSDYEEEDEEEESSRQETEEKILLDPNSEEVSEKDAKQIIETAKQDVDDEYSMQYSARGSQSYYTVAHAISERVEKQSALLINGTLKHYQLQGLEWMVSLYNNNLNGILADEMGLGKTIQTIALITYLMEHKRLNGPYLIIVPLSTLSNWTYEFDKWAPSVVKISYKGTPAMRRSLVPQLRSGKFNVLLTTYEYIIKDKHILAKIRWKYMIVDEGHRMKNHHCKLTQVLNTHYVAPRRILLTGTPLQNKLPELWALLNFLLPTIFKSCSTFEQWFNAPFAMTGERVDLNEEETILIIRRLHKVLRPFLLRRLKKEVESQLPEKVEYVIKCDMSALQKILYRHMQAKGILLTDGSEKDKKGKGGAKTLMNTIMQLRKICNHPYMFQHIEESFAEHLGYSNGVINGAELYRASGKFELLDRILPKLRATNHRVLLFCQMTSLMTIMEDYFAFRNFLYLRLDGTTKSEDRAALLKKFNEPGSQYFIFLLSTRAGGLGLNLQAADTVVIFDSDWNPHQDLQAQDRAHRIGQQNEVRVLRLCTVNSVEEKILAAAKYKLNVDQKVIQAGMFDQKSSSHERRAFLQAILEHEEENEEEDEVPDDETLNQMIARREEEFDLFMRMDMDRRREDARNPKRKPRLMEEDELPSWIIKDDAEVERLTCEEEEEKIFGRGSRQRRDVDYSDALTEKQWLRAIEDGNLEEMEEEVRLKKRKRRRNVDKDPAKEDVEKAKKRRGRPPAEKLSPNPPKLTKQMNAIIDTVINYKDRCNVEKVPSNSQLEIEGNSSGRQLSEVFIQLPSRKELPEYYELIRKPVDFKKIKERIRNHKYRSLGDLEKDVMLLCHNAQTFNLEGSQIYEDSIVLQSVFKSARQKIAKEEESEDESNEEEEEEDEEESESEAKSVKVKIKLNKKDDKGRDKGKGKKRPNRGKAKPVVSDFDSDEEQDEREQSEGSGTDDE

| Compound | Dmax (SMARCA2 [1]) [%] | DC50 (SMARCA2 [1]) [nM] | Selectivity in MV411 (SMARCA2 [1]) | Dmax (SMARCA2 [2]) [%] | DC50 (SMARCA2 [2]) [nM] | Dmax (SMARCA4) [%] | DC50 (SMARCA4) [nM] | SMARCA2 MSD MV411 degradation 24 h: average Dmax % (SMARCA2 [1]) | SMARCA2 MSD A549 degradation 24 h: Average Dmax % (SMARCA2 [2]) | SMARCA4 MSD MV411 degradation 24 h: average Dmax % (SMARCA4) |
| --- | --- | --- | --- | --- | --- | --- | --- | --- | --- | --- |
| Cc1ncsc1-c1ccc(CNC(=O)[C@@H]2C[C@@H](O)CN2C(=O)[C@@H](NC(=O)[C@H]2CC[C@H](c3ccc(-c4cnc(N5CCN6c7cc(-c8ccccc8O)nnc7NC[C@H]6C5)nc4)cc3)CC2)C(C)(C)C)cc1 [I-85] | 70 to 90 | 10 to 100 | C (C (10-100 fold)) | > 90 | 50 to 100 | < 50 | > 100 |  |  |  |
| C#Cc1ccc([C@H](C)NC(=O)[C@@H]2C[C@@H](O)CN2C(=O)[C@@H](NC(=O)N2CC3(CC(N4CCC(c5cnc(N6CCc7[nH]c8nnc(-c9ccccc9O)cc8c7[C@H]6C)nc5)CC4)C3)C2)C(C)(C)C)c(OC)c1 [I-167] | 70 to 90 | 1 to 10 | C (C (10-100 fold)) | > 90 | 10 to 50 | 70 to 90 | > 100 |  |  |  |
| C#Cc1ccc(CNC(=O)[C@@H]2C[C@@H](O)CN2C(=O)C(c2cc(OCCN3CCC(N4CCC(N5CCC(CN6CCN7c8cc(-c9ccccc9O)nnc8NC[C@H]7C6)CC5)CC4)CC3)no2)C(C)C)c(F)c1 (stereo partly drawn) [I-296] | > 90 | 1 to 10 | C (C (10-100 fold)) | > 90 | 50 to 100 | 70 to 90 | 10 to 100 |  |  |  |
| C#Cc1ccc([C@H](C)NC(=O)[C@@H]2C[C@@H](O)CN2C(=O)[C@@H](OC(=O)N2CC3(CC(N4CCC(c5cnc(N6CCc7[nH]c8nnc(-c9ccccc9O)cc8c7[C@H]6C)nc5)CC4)C3)C2)C(C)(C)C)cc1 [I-150] | 70 to 90 | 1 to 10 | C (C (10-100 fold)) | > 90 | 10 to 50 | 70 to 90 | > 100 |  |  |  |
| Cc1ncsc1-c1ccc(CNC(=O)[C@@H]2C[C@@H](O)CN2C(=O)[C@@H](NC(=O)[C@H]2CC3(CC[C@H](N4CCN(c5cnc(N6CCc7[nH]c8nnc(-c9ccccc9O)cc8c7[C@H]6C)nc5)CC4)CC3)C2)C(C)(C)C)cc1 (single isomer, unassigned) [I-79] |  | 10 to 100 | C (C (10-100 fold)) |  | > 100 |  | > 100 | B (B (>70-90% degradation)) | A (A (>90% degradation)) | D (D (<50% degradation)) |
| CC(C)C(C(=O)N1C[C@H](O)C[C@H]1C(=O)N[C@@H](C)C#Cc1ccccc1)c1cc(OCCN2CCC(N3CCC(N4CCC(CN5CCN6c7cc(-c8ccccc8O)nnc7NC[C@H]6C5)CC4)CC3)CC2)no1 (stereo partly drawn) [I-283] | < 50 | > 100 | D (D (<10 fold)) | 70 to 90 | > 100 | < 50 | > 100 |  |  |  |
| C#Cc1ccc(CNC(=O)[C@@H]2C[C@@H](O)CN2C(=O)[C@@H](NC(=O)[C@H]2CC3(CC[C@H](N4CCN(c5cnc(N6CCc7[nH]c8nnc(-c9ccccc9O)cc8c7[C@H]6C)nc5)CC4)CC3)C2)C(C)(C)C)cc1 (single isomer, unassigned) [I-300] |  | 10 to 100 | C (C (10-100 fold)) |  | > 100 |  | > 100 | B (B (>70-90% degradation)) | A (A (>90% degradation)) | D (D (<50% degradation)) |
| C#Cc1ccc(CNC(=O)[C@@H]2C[C@@H](O)CN2C(=O)[C@@H](NC(=O)N2CC3(CC(N4CC(N5CCC(c6cnc(N7CCc8[nH]c9nnc(-c%10ccccc%10O)cc9c8[C@H]7C)nc6)CC5)C4)C3)C2)C(C)(C)C)cc1 [I-268] | 70 to 90 | 10 to 100 | C (C (10-100 fold)) | > 90 | > 100 | 50 to 70 | > 100 |  |  |  |

The next lines start with the values.

| Dmax (SMARCA2 [1]) [%] | DC50 (SMARCA2 [1]) [nM] | Selectivity in MV411 (SMARCA2 [1]) | Dmax (SMARCA2 [2]) [%] | DC50 (SMARCA2 [2]) [nM] | Dmax (SMARCA4) [%] | DC50 (SMARCA4) [nM] | SMARCA2 MSD MV411 degradation 24 h: average Dmax % (SMARCA2 [1]) | SMARCA2 MSD A549 degradation 24 h: Average Dmax % (SMARCA2 [2]) | SMARCA4 MSD MV411 degradation 24 h: average Dmax % (SMARCA4) | Compound |
| --- | --- | --- | --- | --- | --- | --- | --- | --- | --- | --- |
|  | 1 to 10 | B (B (>100-500 fold)) |  | 50 to 100 |  | > 100 | B (B (>70-90% degradation)) | A (A (>90% degradation)) | D (D (<50% degradation)) | C#Cc1ccc(CNC(=O)[C@@H]2C[C@@H](O)CN2C(=O)[C@@H](NC(=O)[C@H]2CCC3(CC2)C[C@H](N2CCC(N4CCC(N5CCN6c7cc(-c8ccccc8O)nnc7NC[C@H]6C5)CC4)CC2)C3)C(C)(C)C)cc1 (single isomer, unassigned) [I-175] |
| > 90 | 1 to 10 | C (C (10-100 fold)) | > 90 | 10 to 50 | > 90 | 10 to 100 |  |  |  | C#Cc1ccc(CNC(=O)[C@@H]2C[C@@H](O)CN2C(=O)C(c2cc(N3CCC(CN4CCC(N5CCC(N6CCN7c8cc(-c9ccccc9O)nnc8NC[C@H]7C6)CC5)CC4)CC3)no2)C(C)C)c(Cl)c1 (stereo partly drawn) [I-325] |
|  | < 1 | C (C (10-100 fold)) |  | 10 to 50 |  | 10 to 100 | A (A (>90% degradation)) | A (A (>90% degradation)) | B (B (>70-90% degradation)) | C[C@H](NC(=O)[C@@H]1C[C@@H](O)CN1C(=O)[C@@H](NC(=O)[C@H]1CCC2(CC1)C[C@H](N1CCC(c3cnc(N4CCN5c6cc(-c7ccccc7O)nnc6NC[C@H]5C4)nc3)CC1)C2)C(C)(C)C)c1ccc(-c2ccnn2C)cc1 (single isomer, unassigned) [I-22] |
| 50 to 70 | 10 to 100 | B (B (>100-500 fold)) | 70 to 90 | > 100 | < 50 | > 100 |  |  |  | C#Cc1ccc(CNC(=O)[C@@H]2C[C@@H](O)CN2C(=O)[C@@H](NC(=O)N2CCCC(N3CCC(c4cnc(N5CCN6c7cc(-c8ccccc8O)nnc7NC[C@H]6C5)nc4)CC3)C2)C(C)(C)C)cc1 (mixture of isomers) [I-245] |
| 50 to 70 | 10 to 100 | B (B (>100-500 fold)) | 70 to 90 | 50 to 100 | < 50 | > 100 |  |  |  | C#Cc1ccc(CNC(=O)[C@@H]2C[C@@H](O)CN2C(=O)[C@@H](NC(=O)N2CCN(C[C@H]3CC[C@H](N4CCC(N5CCN6c7cc(-c8ccccc8O)nnc7NC[C@H]6C5)CC4)CC3)CC2)C(C)(C)C)cc1 [I-254] |
| 70 to 90 | 1 to 10 | B (B (>100-500 fold)) | > 90 | > 100 | < 50 | > 100 |  |  |  | C#Cc1ccc([C@H](C)NC(=O)[C@@H]2C[C@@H](O)CN2C(=O)[C@@H](NC(=O)[C@H]2CC3(C2)C[C@H](N2CCC(N4CCC(N5CCN6c7cc(-c8ccccc8O)nnc7NC[C@H]6C5)CC4)CC2)C3)C(C)(C)C)cc1 (single isomer, unassigned) [I-213] |
| 70 to 90 | 10 to 100 | B (B (>100-500 fold)) | 70 to 90 | > 100 | < 50 | > 100 |  |  |  | C#Cc1ccc(CNC(=O)[C@@H]2C[C@@H](O)CN2C(=O)[C@@H](NC(=O)N2CCN(C[C@H]3CC[C@@H](N4CCC(N5CCN6c7cc(-c8ccccc8O)nnc7NC[C@H]6C5)CC4)CC3)CC2)C(C)(C)C)cc1 [I-255] |
| < 50 | > 100 | C (C (10-100 fold)) | 50 to 70 | > 100 | < 50 | > 100 |  |  |  | CC(C)(C)[C@H](NC(=O)[C@H]1CCC2(CC1)C[C@H](N1CCC(c3cnc(N4CCN5c6cc(-c7ccccc7O)nnc6NC[C@H]5C4)nc3)CC1)C2)C(=O)N1C[C@H](O)C[C@H]1C(=O)NCC#Cc1ccc(Cl)cc1 (single isomer, unassigned) [I-101] |
| < 50 | > 100 | C (C (10-100 fold)) | 70 to 90 | > 100 | < 50 | > 100 |  |  |  | C#Cc1ccc(CNC(=O)[C@@H]2C[C@@H](O)CN2C(=O)[C@@H](NC(=O)N2CCN(C[C@H]3CC[C@H](N4CCC(N5CCc6[nH]c7nnc(-c8ccccc8O)cc7c6[C@H]5C)CC4)CC3)CC2)C(C)(C)C)cc1 [I-194] |
|  | 1 to 10 | C (C (10-100 fold)) |  | 10 to 50 |  | > 100 | B (B (>70-90% degradation)) | A (A (>90% degradation)) | C (C (50-70% degradation)) | C#Cc1ccc(CNC(=O)[C@@H]2C[C@@H](O)CN2C(=O)[C@@H](NC(=O)[C@H]2CCC3(CC2)C[C@H](N2CCN(c4cnc(N5CCN6c7cc(-c8ccccc8O)nnc7NC[C@H]6C5)nc4)CC2)C3)C(C)(C)C)c(OC)c1 (single isomer, unassigned) [I-196] |
